Test results from patent US11415513B2, “Method for determining the degree of sensitivity of a strain of fungus to an antifungal agent” (UNIVERSITE GRENOBLE ALPES, priority 2015, dated 2022).
≈ marks a conversion by molar mass, not a printed value.

Legend:
[1] = tested on: strain 8/21 of C. parapsilosis; experiment: Sensitivity test by HCA microscopy (chitin level, Calcofluor White); assay type: cell-based, Candida parapsilosis; conditions: vs cells in the absence of antifungal agent; 6.5 h at 30° C., SC medium; concentration gradient of Table 1
Description: (§1) The strains of Candida were incubated beforehand at 30° C. overnight in a yeast extract medium—peptone dextrose (YPD) (1% bacto peptone, 0.5% yeast extract, 2% glucose, 1.5% agar).
(§2) Yeast colonies were then removed from YPD medium plates and suspended in a 0.9% NaCl saline solution, in which the cell concentration was estimated by optical microscopy using Kova counting slides. […]
(§3) A step of acquiring images by automated fluorescence microscopy (ScanR screening station, Olympus), using a 40× lens and a CFW filter, made it possible to obtain 30 images per well so as to capture enough cells to provide statistically significant data. These images were analysed by software (ScanR analysis software, Olympus). Firstly, the background noise was processed so as to improve the contrast between the fluorescence of the yeasts and background noise. […] Segmentation of the fluorescent elements present in each of the acquired images was then performed using an algorithm predefined in the software, making it possible to determine the limit of each element on the basis of the fluorescence intensity of said element. […]
(§4) Each element then corresponding to a yeast, it was thus possible, on the basis of these elements predefined beforehand, to define the fluorescence intensity for each of the yeasts, this intensity being directly correlated with the chitin content of their wall. […]

[2] = tested on: strain 8/21 of C. parapsilosis; experiment: Etest method (MIC); assay type: cell-based, Candida parapsilosis; conditions: RPMI medium plates, 24 h at 35° C.; for MIC: Lodderomyces parapsilosis
Description: (§5) The Etest® method is a commercial test for determining the sensitivity of a strain, most frequently used routinely in clinical mycology laboratories.
(§6) The Etest® tests were performed according to the manufacturer's instructions. After distributing a standardised Mac Farland 0.5 inoculum (equivalent of […]) over plates of RPMI medium, said plates were incubated for 24 h at 35° C., with the exception of C. glabrata in which case the incubation was extended to 48 h so as to be able to determine the minimum inhibitory concentration (MIC).
(§7) The results of the MICs obtained were interpreted in accordance with the tables of the CLSI (Clinical and Laboratory Standards Institute) and/or of EUCAST (European Committee on Antimicrobial Susceptibility Testing) (Arendrup M C, Cuenca-Estrella M, Lass-Flörl C, Hope W W (2014) Breakpoints for antifungal agents: an update from EUCAST focussing on echinocandins against Candida spp and triazoles against Aspergillus spp. Drug Resist Updat 16(6):81-95. doi:10.1016/j.drup.2014.01.001) (cf. Table 2 taken from Maubon D, Garnaud C, Calandra T, et al. (2014) Resistance of Candida spp. to antifungal drugs in the ICU: where are we now? Intensive Care Med. doi: 10.1007/s00134-014-3404-7) which list the clinical thresholds (CBPs) for the most common species of yeast of the genus Candida as a function of different antifungal agents, or according to the table of epidemiological thresholds (ECVs).

[3] = tested on: strain SC5314 of C. albicans; experiment: Etest method (MIC); assay type: cell-based, Candida albicans; conditions: RPMI medium plates, 24 h at 35° C.; for MIC: Candida albicans, SC5314
Description: as §5, §6, §7

[4] = tested on: strain DSY296 of C. albicans; experiment: Etest method (MIC); assay type: cell-based, Candida albicans; conditions: RPMI medium plates, 24 h at 35° C.; for MIC: Candida albicans
Description: as §5, §6, §7

[5] = tested on: strain DSY296 of C. albicans; experiment: Sensitivity test by HCA microscopy (chitin level, Calcofluor White); assay type: cell-based, Candida albicans; conditions: vs cells in the absence of antifungal agent; 6.5 h at 30° C., SC medium; concentration gradient of Table 1
Description: as §1, §2, §3, §4

Row | SMILES | increase in the chitin level in the wall of the cells [1] | MIC [2] [µg/mL] | phenotype by Etest MIC, interpretation by the EUCAST and CLSI tables [2] | MIC [3] [µg/mL] | phenotype by Etest MIC, interpretation by the EUCAST and CLSI tables [3] | MIC [4] [µg/mL] | phenotype by Etest MIC, interpretation by the EUCAST and CLSI tables [4] | decrease in the chitin level in the wall of the cells [5]
1 | OC(Cn1cncn1)(Cn1cncn1)c1ccc(F)cc1F [fluconazole] | less than 10% | 8 (≈ 26.1 µM) | resistant | 0.125 (≈ 0.408 µM) | sensitive | 96 (≈ 313 µM) | resistant | less than 20%
2 | C[C@@H](c1ncncc1F)[C@](O)(Cn1cncn1)c1ccc(F)cc1F [voriconazole] | less than 10% | 4 (≈ 11.5 µM) | resistant | 0.012 (≈ 0.0344 µM) | sensitive | 1 (≈ 2.86 µM) | resistant | less than 20%
